Laboratory results as given in ChEMBL document CHEMBL4265928, “Design, synthesis, and biological evaluation of 2-(phenoxyaryl)-3-urea derivatives as novel P2Y1 receptor antagonists” (Eur J Med Chem, 2018).

How the values were obtained:
[1] = test system: Rattus norvegicus; experiment: Antiplatelet activity in Sprague-Dawley rat platelet rich plasma assessed as inhibition of ADP-induced platelet aggregation at 3 mg/kg, ig after 2 hrs relative to control; assay type: functional; settings: po
[2] = biological target: P2Y purinoceptor 1 (Homo sapiens, UniProt P47900); experiment: Antagonist activity at P2Y1 (unknown origin) expressed in human 1321N1 cells assessed as induction of calcium stimulation by fluo-4 dye based assay; assay type: functional, cell-based
P2Y purinoceptor 1, sequence (P47900 whole entry): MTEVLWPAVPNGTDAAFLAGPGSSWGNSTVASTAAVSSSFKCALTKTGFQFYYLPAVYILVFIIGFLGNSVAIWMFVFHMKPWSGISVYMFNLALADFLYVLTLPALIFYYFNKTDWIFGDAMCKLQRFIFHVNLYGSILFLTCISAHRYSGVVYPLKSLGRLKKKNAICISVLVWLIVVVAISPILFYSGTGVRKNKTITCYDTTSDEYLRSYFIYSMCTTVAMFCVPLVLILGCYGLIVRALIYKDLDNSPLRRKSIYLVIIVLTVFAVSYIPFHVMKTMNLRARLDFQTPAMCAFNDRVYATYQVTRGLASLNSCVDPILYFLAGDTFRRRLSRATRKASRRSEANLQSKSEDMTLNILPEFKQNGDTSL

IC50 [2]	Compound	inhibition in vivo at 3 mg/kg [1]
–	CC(C)(C)c1ccccc1Oc1ncccc1NC(=O)Nc1ccc(OC(F)(F)F)cc1	67.4%
0.21 µM	Cc1ccc(NC(=O)Nc2ccc(OC(F)(F)F)cc2)c(Oc2ccccc2C(C)(C)C)n1	68.9%
7.05 µM	CC(C)(C)c1ccccc1Oc1ncccc1NC(=O)N[C@H]1CC[C@H](C)CC1	57.6%
12.9 µM	COC(=O)c1ccc(NC(=O)Nc2cccnc2Oc2ccccc2C(C)(C)C)s1	–
2.41 µM	CC(C)(C)c1ccccc1Oc1ncccc1NC(=O)NC1CCCC1	–
0.82 µM	CC1CCCCC1NC(=O)Nc1cccnc1Oc1ccccc1C(C)(C)C (configuration not stated)	–
12.5 µM	CCOC(=O)c1ccc(NC(=O)Nc2cccnc2Oc2ccccc2C(C)(C)C)s1	50.6%
0.62 µM	CC(C)(C)c1ccccc1Oc1ncccc1NC(=O)NC1C2CC3CC(C2)CC1C3 (configuration not stated)	26.7%
9.98 µM	CCCCNC(=O)Nc1cccnc1Oc1ccccc1C(C)(C)C	22%
7.19 µM	CC(C)(C)c1ccccc1Oc1ncccc1NC(=O)Nc1ccc(C(=O)OCc2ccccc2)s1	69.4%
7.53 µM	CC(C)(C)c1ccccc1Oc1ccccc1NC(=O)Nc1ccc(OC(F)(F)F)cc1	–
